System: cellular gene expression in HeLa rtTA HIV∆Mls cells

Cc1cc(NCc2cccnc2)n2ncc(-c3ccc(Cl)cc3)c2n1 [Compound 791, 3-(4-chlorophenyl)-5-methyl-N-(3-pyridinylmethyl)pyrazolo[1,5-a]pyrimidin-7-amine]
AARS Mean fold change: 2.833
ABCC3 Mean fold change: 2.692
ABCG1 Mean fold change: 3.311
ABHD6 Mean fold change: 1.566
AC004490.2 Mean fold change: 2.204
AC006486.1 expression fold change: 0.690
AC008763.1 expression fold change: 0.679
AC009133.2 Mean fold change: 1.588
AC010442.1 Mean fold change: 1.579
AC013356.3 expression fold change: 1.345
AC037487.1 expression fold change: 1.347
AC068020.2 Mean fold change: 2.561
AC092295.7 expression fold change: 0.786
AC135352.1 Mean fold change: 1.465
AC138904.2 Mean fold change: 2.431
ACADVL Mean fold change: 1.427
ACAP3 expression fold change: 0.896
ACER2 expression fold change: 1.385
ACN9 expression fold change: 1.202
ACOT9 expression fold change: 0.729
ACTN1 expression fold change: 0.801
ADD1 expression fold change: 0.880
ADI1 expression fold change: 0.759
ADO expression fold change: 1.398
AGPAT2 expression fold change: 0.738
AGPAT9 Mean fold change: 1.761
AGXT2L2 Mean fold change: 1.839
AHCTF1 expression fold change: 1.155
AIDA expression fold change: 1.199
AIFM1 expression fold change: 1.118
AKIRIN2 expression fold change: 1.270
ALDH2 Mean fold change: 1.928
ALDOC expression fold change: 0.728
ALG5 expression fold change: 1.288
ALKBH8 expression fold change: 1.320
ALX1 expression fold change: 1.051
ANKHD1 expression fold change: 1.136
ANKRD40 expression fold change: 1.260
ANKRD50 expression fold change: 1.377
ANKS1A expression fold change: 0.869
ANXA5 expression fold change: 0.844
ANXA6 expression fold change: 0.632
AP2M1 expression fold change: 0.841
AP3S2 expression fold change: 1.386
AP000926.1 Mean fold change: 1.726
APBA3 expression fold change: 1.129
APOBEC3B expression fold change: 0.520
ARF1 expression fold change: 0.787
ARF3 expression fold change: 0.882
ARG2 Mean fold change: 3.609
ARHGAP11A expression fold change: 0.778
ARHGAP26 Mean fold change: 1.819
ARHGEF2 Mean fold change: 2.222
ARHGEF4 Mean fold change: 1.690
ARL4D expression fold change: 1.406
ARL17B Mean fold change: 1.427
ARMC10 expression fold change: 1.383
ARNTL Mean fold change: 1.815
ARPC5 expression fold change: 0.694
ARSJ expression fold change: 1.309
ASB7 expression fold change: 1.181
ASB8 expression fold change: 1.184
ASCC1 expression fold change: 1.134
ASNS Mean fold change: 5.898
ASNSD1 expression fold change: 1.208
ATF4 Mean fold change: 1.683
ATG4B expression fold change: 1.240
ATG12 expression fold change: 1.178
ATG16L1 expression fold change: 1.132
ATIC expression fold change: 1.115
ATP2B1 Mean fold change: 1.479
ATP5H expression fold change: 1.145
ATP6AP1L Mean fold change: 1.979
ATP6V0A1 expression fold change: 0.795
ATP6V1B2 expression fold change: 1.261
ATP8B1 expression fold change: 0.527
ATXN7L2 expression fold change: 1.076
AUP1 expression fold change: 1.231
AVL9 expression fold change: 1.338
AXIN1 expression fold change: 1.266
B3GNT1 expression fold change: 0.674
B3GNT5 Mean fold change: 2.008
B4GALT5 expression fold change: 1.380
BAT3 expression fold change: 0.841
BAZ1B expression fold change: 1.159
BCAR1 expression fold change: 0.869
BCAR3 Mean fold change: 1.528
BCL7A expression fold change: 1.302
BCOR expression fold change: 0.835
BCORL1 expression fold change: 0.826
BEST1 Mean fold change: 1.710
BHLHB9 expression fold change: 0.836
BICD1 expression fold change: 1.280
BIVM expression fold change: 1.241
BMP2K expression fold change: 1.246
BMPR1B expression fold change: 0.758
BRWD2 expression fold change: 1.126
BST2 expression fold change: 0.606
BTRC expression fold change: 1.086
BUD13 expression fold change: 1.160
C1D expression fold change: 0.907
C1orf27 expression fold change: 1.263
C1orf43 Mean fold change: 1.578
C1orf103 expression fold change: 1.312
C1orf109 expression fold change: 1.133
C1orf115 expression fold change: 0.712
C1orf131 expression fold change: 1.232
C2orf18 Mean fold change: 2.057
C2orf44 expression fold change: 1.212
C2orf49 expression fold change: 1.330
C2orf60 Mean fold change: 1.552
C3orf19 expression fold change: 1.302
C3orf59 expression fold change: 0.622
C4orf23 expression fold change: 1.124
C4orf27 expression fold change: 1.269
C4orf32 Mean fold change: 1.456
C4orf43 expression fold change: 1.083
C5orf13 expression fold change: 0.675
C5orf15 expression fold change: 0.799
C5orf30 expression fold change: 1.191
C5orf37 expression fold change: 1.270
C5orf45 expression fold change: 1.325
C5orf51 expression fold change: 1.347
C6orf48 Mean fold change: 2.042
C6orf145 expression fold change: 0.730
C7orf23 expression fold change: 1.243
C7orf25 expression fold change: 1.354
C7orf27 expression fold change: 0.879
C7orf42 expression fold change: 0.864
C7orf44 expression fold change: 1.193
C9orf3 expression fold change: 0.575
C9orf6 expression fold change: 1.317
C9orf46 expression fold change: 1.230
C9orf114 expression fold change: 1.133
C9orf163 expression fold change: 0.820
C10orf76 expression fold change: 0.797
C10orf114 expression fold change: 0.622
C11orf17 Mean fold change: 1.495
C11orf57 expression fold change: 1.379
C11orf73 expression fold change: 1.274
C12orf35 expression fold change: 1.357
C12orf41 Mean fold change: 1.427
C12orf65 expression fold change: 1.231
C12orf73 expression fold change: 1.310
C13orf23 expression fold change: 1.356
C14orf79 Mean fold change: 1.679
C14orf104 expression fold change: 1.167
C14orf147 expression fold change: 0.683
C14orf167 Mean fold change: 1.721
C15orf61 expression fold change: 1.088
C16orf63 expression fold change: 1.203
C16orf72 expression fold change: 1.363
C17orf75 expression fold change: 1.209
C17orf80 expression fold change: 1.234
C18orf19 expression fold change: 1.208
C18orf25 expression fold change: 1.336
C18orf45 expression fold change: 1.218
C19orf28 expression fold change: 0.696
C19orf55 expression fold change: 1.216
C19orf57 Mean fold change: 2.062
C20orf29 expression fold change: 0.759
C20orf177 expression fold change: 1.123
C22orf23 Mean fold change: 1.568
CA5B Mean fold change: 1.804
CALD1 expression fold change: 0.520
CAP2 expression fold change: 0.518
CAPN1 expression fold change: 0.764
CARS Mean fold change: 2.332
CASC5 expression fold change: 0.767
CASP8 expression fold change: 1.182
CAT Mean fold change: 1.598
CAV2 expression fold change: 0.581
CC2D2A expression fold change: 0.869
CCBL2 expression fold change: 1.248
CCDC22 expression fold change: 1.134
CCDC25 expression fold change: 1.260
CCDC40 Mean fold change: 1.891
CCDC41 expression fold change: 1.182
CCDC55 expression fold change: 1.136
CCDC85C expression fold change: 0.665
CCDC91 Mean fold change: 1.516
CCDC92 expression fold change: 1.319
CCDC99 expression fold change: 0.607
CCDC102A expression fold change: 0.591
CCDC150 expression fold change: 0.840
CCNB1IP1 Mean fold change: 1.940
CCNJ expression fold change: 1.250
CCNT2 expression fold change: 1.170
CD276 expression fold change: 0.827
CDADC1 expression fold change: 1.201
CDC42EP3 expression fold change: 0.641
CDK1 expression fold change: 0.737
CDK4 expression fold change: 1.239
CDK8 expression fold change: 1.082
CDK17 expression fold change: 1.247
CDKL1 expression fold change: 0.840
CDKN2C expression fold change: 0.598
CEBPG Mean fold change: 3.507
CEP70 expression fold change: 0.860
CES2 Mean fold change: 1.537
CGN expression fold change: 0.519
CGRRF1 Mean fold change: 1.453
CHAC1 Mean fold change: 6.989
CHCHD4 expression fold change: 1.327
CHN1 expression fold change: 0.798
CHN2 expression fold change: 1.345
CLCN2 expression fold change: 1.278
CLCN5 Mean fold change: 1.584
CLEC2D Mean fold change: 1.905
CLIC4 Mean fold change: 1.468
CLPTM1L expression fold change: 0.747
CLUAP1 Mean fold change: 1.416
CNN2 expression fold change: 0.712
CNNM3 expression fold change: 0.809
CNOT4 expression fold change: 1.191
COG1 expression fold change: 1.328
COG8 expression fold change: 1.183
COL4A3BP Mean fold change: 1.572
COMMD1 expression fold change: 0.832
COMMD4 expression fold change: 0.856
COPS7B Mean fold change: 1.473
COX7A2L expression fold change: 1.194
COX7A2 expression fold change: 0.949
COX19 expression fold change: 1.369
CPD Mean fold change: 1.588
CREB1 expression fold change: 1.234
CRTC3 expression fold change: 0.714
CSE1L expression fold change: 0.867
CSGALNACT2 expression fold change: 1.343
CSNK1A1 Mean fold change: 1.528
CSNK2A1 expression fold change: 1.245
CSRNP2 expression fold change: 1.269
CSRP2BP Mean fold change: 1.435
CSRP2 expression fold change: 0.574
CST3 expression fold change: 1.145
CTC-241N9.1 Mean fold change: 1.850
CTD-2526A2.1 Mean fold change: 1.524
CTH Mean fold change: 2.646
CTNND1 expression fold change: 0.683
CTSL1 Mean fold change: 1.489
CTTNBP2 expression fold change: 0.629
CUEDC2 expression fold change: 1.278
CWC25 expression fold change: 1.169
CXADR expression fold change: 1.102
CYFIP1 expression fold change: 0.887
CYP2R1 Mean fold change: 1.818
CYP2S1 expression fold change: 1.098
CYTH3 expression fold change: 0.536
DAB2 expression fold change: 0.623
DAG1 expression fold change: 0.608
DAGLB expression fold change: 0.867
DBF4B expression fold change: 0.760

From paper PMC5267425, “Identification of small molecule modulators of HIV-1 Tat and Rev protein accumulation” (Retrovirology, 2017)
